In patent US20100298302A1, “NOVEL PROTEIN KINASE MODULATORS” (priority 2009, published 2010):

Experiments:
recombinant PIM-1 = recombinant PIM-1 (Homo sapiens, UniProt P11309); assay: PIM-1 kinase assay; type: biochemical; details: for inhibition at 0.5 µM: 500 nM compound, read-out: PIM1: % inh 500 nM; for IC50: 15 μM ATP, read-out: PIM1: IC50 (15 μM ATP)
Description: The following procedure was used to assay the PIM-1 kinase activity of compounds of the invention. Other methods for assaying PIM-1 and other PIM kinases, as well as methods to assay for activity against various kinases known in the art.
In a final reaction volume of 50 ul, recombinant PIM-1 (1 ng) was incubated with 12 mM MOPS pH 7.0, 0.4 mM EDTA, glycerol 1%, brij 35 0.002%, 2-mercaptoethanol 0.02%, BSA 0.2 mg/ml, 100 uM KKRNRTLTK, 10 mM MgAcetate, 15 uM ATP, [γ-^33P-ATP] (specific activity approx. 500 cpm/pmol), DMSO 4% and test inhibitor compound at the required concentration. The reaction was initiated by the addition of the Magnesium ATP mixture. After 40 min incubation at 23° C., the reactions were quenched by the addition of 100 ul 0.75% Phosphoric acid, and the labeled peptide collected by filtration through a phosphocellulose filter plate. The plate was washed 4 times with 0.075% phosphoric acid (100 ul per well) and then, after the addition of scintillation fluid (20 ul per well), the counts were measured by a scintillation counter.

MV-4-11 = assay: Alamar Blue cell proliferation assay, MV-4-11; type: cell-based; details: Homo sapiens, MV4-11; Table 4
Description: (§1) A representative cell-proliferation assay protocol using Alamar Blue dye (stored at 4° C., use 20 ul per well) is described hereafter.
(§2) a. Split and trypsinize cells.
(§3) b. Count cells using hemocytometer.
(§4) c. Plate 4,000-5,000 cells per well in 100 μl of medium and seed into a 96-well plate according to the following plate layout. Add cell culture medium only to wells B10 to B12. Wells B1 to B9 have cells but no compound added.
(§5) d. Add 100 μl of 2× drug dilution to each well in a concentration shown in the plate layout above. At the same time, add 100 μl of media into the control wells (wells B10 to B12). Total volume is 200 μl/well.
(§6) e. Incubate four (4) days at 37° C., 5% CO2 in a humidified incubator.
(§7) f. Add 20 μl Alamar Blue reagent to each well.
(§8) g. Incubate for four (4) hours at 37° C., 5% CO2 in a humidified incubator.
(§9) h. Record fluorescence at an excitation wavelength of 544 nm and emission wavelength of 590 nm using a microplate reader.
(§10) In the assays, cells are cultured with a test compound for approximately four days, the dye is then added to the cells and fluorescence of […] dye is detected after approximately four hours. Different types of cells can be utilized in the assays (e.g., HCT-116 human colorectal carcinoma cells, PC-3 human prostatic cancer cells, MDA-MB231 human breast cancer cells, K-562 human chronic myelogenous leukemia (CML) cells, MiaPaca human pancreatic carcinoma cells, MV-4 human acute myeloid leukemia cells, and BxPC3 human pancreatic adenocarcinoma cells).

[1] = system: K-562 human chronic myelogenous leukemia (CML) cells; assay: Alamar Blue cell proliferation assay, K-562; type: cell-based; details: K562, Table 4
Description: as §1, §2, §3, §4, §5, §6, §7, §8, §9, §10

Sequence of recombinant PIM-1 (P11309 whole entry): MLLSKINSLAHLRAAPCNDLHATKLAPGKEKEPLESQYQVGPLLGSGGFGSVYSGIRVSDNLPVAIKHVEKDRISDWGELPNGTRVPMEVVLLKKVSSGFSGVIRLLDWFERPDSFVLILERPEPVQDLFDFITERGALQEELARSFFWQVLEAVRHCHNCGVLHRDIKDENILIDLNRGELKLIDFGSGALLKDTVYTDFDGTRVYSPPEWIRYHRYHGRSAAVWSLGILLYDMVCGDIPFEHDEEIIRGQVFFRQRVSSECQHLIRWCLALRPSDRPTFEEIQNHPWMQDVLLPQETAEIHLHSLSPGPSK

| Structure (SMILES) | inhibition at 0.5 µM (recombinant PIM-1) [%] | IC50 (MV-4-11) [µM] | IC50 [1] [µM] | IC50 (recombinant PIM-1) [µM] |
| --- | --- | --- | --- | --- |
| O=C(O)c1ccc2c(c1)nc(NCCO)c1cccn12 | 35 |  |  |  |
| CCN1CCCC1CNc1nc2cc(-c3nnn[nH]3)ccc2n2cccc12 (stereo not shown) | 81.5 | > 10 | > 10 | 0.097 |
| OCCNc1nc2cc(-c3nnn[nH]3)ccc2n2cccc12 | 67.9 | > 10 | > 10 | 0.273 |
| CCOC(=O)c1ccc2c(c1)[nH]c(=O)c1cccn12 | 14 |  |  |  |
| CN1CCN(C(=O)c2ccc3c(c2)[nH]c(=O)c2cccn23)CC1 | -31.9 |  |  |  |
| O=C(O)c1ccc2c(c1)nc(NCCN1CCCCC1)c1cccn12 | 98.8 | > 10 | > 10 | 0.372 |
| CCN1CCCC1CNc1nc2cc(C(=O)O)ccc2n2cccc12 (stereo not shown) | 89.7 | > 10 | > 10 | 0.2 |
| N#Cc1ccc2c(c1)[nH]c(=O)c1cccn12 | -28.6 |  |  |  |
| COc1cccc(Nc2nc3cc(-c4nnn[nH]4)ccc3n3cccc23)c1 | 15 |  |  |  |
| COc1ccc(OC)c(Nc2nc3cc(-c4nnn[nH]4)ccc3n3cccc23)c1 | 10.9 |  |  |  |
| CC(C)(C)OC(=O)N1CCCN(C(=O)c2ccc3c(c2)[nH]c(=O)c2cccn23)CC1 | -46.9 |  |  |  |
| O=C(O)c1ccc2c(c1)nc(NCCC(F)(F)F)c1cccn12 | 46 |  |  |  |
| N#Cc1ccc2c(c1)nc(NCc1ccccc1)c1cccn12 | -35 |  |  |  |
| O=C(O)c1ccc2c(c1)[nH]c(=O)c1cccn12 | 25.6 |  |  |  |
| CN(C)CCNc1nc2cc(-c3nnn[nH]3)ccc2n2cccc12 | 63.5 | > 10 | > 10 | 0.486 |
| O=C(c1ccc2c(c1)[nH]c(=O)c1cccn12)N1CCCNCC1 | -0.195 |  |  |  |
| Fc1ccc(Nc2nc3cc(-c4nnn[nH]4)ccc3n3cccc23)cc1 | 73.2 | > 10 | > 10 | 0.365 |

| Structure (SMILES) | inhibition at 0.5 µM (recombinant PIM-1) [%] | IC50 (MV-4-11) [µM] | IC50 [1] [µM] | IC50 (recombinant PIM-1) [µM] |
| --- | --- | --- | --- | --- |
| NC(=O)c1ccc2c(c1)[nH]c(=O)c1cccn12 | -22.5 |  |  |  |
| c1ccc(CNc2nc3cc(-c4nnn[nH]4)ccc3n3cccc23)cc1 | 14.4 |  |  |  |
| CN(C)CCNc1nc2cc(C(=O)O)ccc2n2cccc12 | 76.5 | 0.688 | > 10 | 0.173 |
| O=C(O)c1ccc2c(c1)nc(Nc1ccccc1)c1cccn12 | 73.1 | 0.483 | > 10 | 0.13 |
| O=c1[nH]c2cc(-c3nnn[nH]3)ccc2n2cccc12 | 41.8 |  |  |  |
| O=C(O)c1ccc2c(c1)nc(NCCN1CCOCC1)c1cccn12 | 18.9 |  |  |  |
| N#Cc1ccc2c(c1)nc(Cl)c1cccn12 | -35.4 |  |  |  |
| c1ccc(Nc2nc3cc(-c4nnn[nH]4)ccc3n3cccc23)cc1 | 75.9 | > 10 | > 10 | 0.164 |
| COc1ccc(Nc2nc3cc(-c4nnn[nH]4)ccc3n3cccc23)cc1Cl | 19.4 |  |  |  |
| c1ccc(Nc2nc3cc(-c4nnc[nH]4)ccc3n3cccc23)cc1 | -24.5 |  |  |  |
| O=C(O)c1ccc2c(c1)nc(NCCN1CCCC1)c1cccn12 | 72.5 | > 10 | > 10 | 0.504 |
| CC(C)(C)OC(=O)N1CCN(C(=O)c2ccc3c(c2)[nH]c(=O)c2cccn23)CC1 | -27.1 |  |  |  |
| CN1CCCC(Nc2nc3cc(C(=O)O)ccc3n3cccc23)C1 (stereo not shown) | 69.5 | > 10 | > 10 | 0.33 |
| CCOC(=O)c1ccc2c(c1)nc(Nc1ccc(F)c(Cl)c1)c1cccn12 | -76.2 |  |  |  |
| CC(=O)N1CCN(C(=O)c2ccc3c(c2)[nH]c(=O)c2cccn23)CC1 | -8.35 |  |  |  |
| O=C(c1ccc2c(c1)[nH]c(=O)c1cccn12)N1CCNCC1 | -11.8 |  |  |  |
| CN(C)CCNC(=O)c1ccc2c(c1)[nH]c(=O)c1cccn12 | -13.9 |  |  |  |
